# According to patent US9701630B2, “Difluorolactam compositions for EP4-mediated osteo related diseases and conditions” (Cayman Chemical Company, Inc., priority 2012, dated 2017):
# Legend:
# calvarial bone defect = test: Rat calvarial defect model (bone formation); type: in vivo; details: female Sprague Dawley rats, in calcium phosphate cement/demineralized bone matrix, 3 μg/ml to 3 mg/ml, eight weeks; data in FIG. 1
# rat EP4 receptor = target: T1, rat EP4 receptor (Rattus norvegicus, UniProt P43114); test: STEP plate cAMP level assay for EP4 agonist; type: cell-based; details: cAMP readout, read-out: STEP cell functional assay EC50s cAMP/EP4
# T1 construct: host or cells: cells seeded on the STEP plate
# T1 sequence (P43114 whole entry): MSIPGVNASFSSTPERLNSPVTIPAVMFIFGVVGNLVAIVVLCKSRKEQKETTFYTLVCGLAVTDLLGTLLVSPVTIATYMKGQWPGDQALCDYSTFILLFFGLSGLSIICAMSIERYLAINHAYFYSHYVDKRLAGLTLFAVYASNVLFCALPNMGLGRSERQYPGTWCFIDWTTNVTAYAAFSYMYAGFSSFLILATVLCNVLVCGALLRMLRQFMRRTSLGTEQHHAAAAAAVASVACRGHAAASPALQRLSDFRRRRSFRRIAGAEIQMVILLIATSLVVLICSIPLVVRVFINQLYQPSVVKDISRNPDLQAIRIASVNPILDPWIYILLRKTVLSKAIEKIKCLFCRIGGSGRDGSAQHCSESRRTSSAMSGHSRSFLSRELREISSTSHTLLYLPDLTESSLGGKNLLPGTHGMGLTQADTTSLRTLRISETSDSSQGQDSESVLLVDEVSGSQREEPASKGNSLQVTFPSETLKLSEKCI
# Text: Functional Cellular Assays (STEP Plate Format)
# Procedure of cAMP Assay for EP2/EP4 Agonist
# 3. […] In addition each concentration had triplicates.
# 6. Aspirate the supernatant.
Compound,Healing of a calvarial bone defect (degree of repair) (calvarial bone defect),EC50 (rat EP4 receptor)
"CCC#CC[C@H](C)[C@H](O)/C=C/[C@H]1CC(F)(F)C(=O)N1CCCCCCC(=O)O [Example 2C, 7-((R)-3,3-difluoro-5-((3S,4S,E)-3-hydroxy-4-methylnon-1-en-6-yn-1-yl)-2-oxopyrrolidin-1-yl)heptanoic acid]",Accelerated Healing,–
"COC(=O)c1ccc(CCCN2C(=O)C(F)(F)C[C@@H]2/C=C/[C@@H](O)[C@H](C)CCCc2ccccc2)s1 [Example 28E, methyl 5-(3-((R)-3,3-difluoro-5-((3S,4R,E)-3-hydroxy-4-methyl-7-phenylhept-1-en-1-yl)-2-oxopyrrolidin-1-yl)propyl)thiophene-2-carboxylate]",–,50.8 nM
